The values that follow are results of earlier work, collected in patent US20060280815A1, “Nutritional composition which promotes weight loss, burns calories, increases thermogenesis, supports energy metabolism and/or suppresses appetite” (priority 2004, published 2006).

The conditions of this data set: people with type 2 diabetes; acute abstention from caffeine.

Take `Cn1c(=O)c2c(ncn2C)n(C)c1=O` [caffeine]: the “reduction of postprandial glucose levels” value is 21%.
